Laboratory results as given in ChEMBL document CHEMBL1201862, “PubChem BioAssay data set” (2004).
Active and inactive are the calls of the source.

Experiments:
[1] = target: Voltage-dependent T-type calcium channel subunit alpha-1H (Homo sapiens, UniProt O95180); experiment: inhibition of CACNA1H calcium flux – cell-based, SynthLib3 library, HEK293 Cav3.2, fluorescence (AID 493041); assay type: functional
Bcl-2-related protein A1 [2] = target: T1, Bcl-2-related protein A1 (Mus musculus, UniProt Q07440); assay type: functional;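 further: confirmatory dose–response counterscreen on Bfl-1, used to check hits from a UBC13 polyubiquitin inhibitor campaign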
T1 sequence (Q07440 whole entry): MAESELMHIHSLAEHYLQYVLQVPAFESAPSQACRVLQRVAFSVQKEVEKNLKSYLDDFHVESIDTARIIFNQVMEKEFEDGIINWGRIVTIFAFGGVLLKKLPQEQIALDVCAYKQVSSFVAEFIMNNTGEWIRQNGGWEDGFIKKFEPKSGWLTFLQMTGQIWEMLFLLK

Streptococcus = experiment: GAS UMAA2166 growth inhibition – luminescence, BacTiterGlo, counter-screen for streptokinase expression inhibitor project, dose response (AID 1915); assay type: functional, organism-based;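 further: potency for reduction of bacterial viability or growth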
Streptokinase A = target: T2, Streptokinase A (Streptococcus pyogenes serotype M1, UniProt P10520); experiment: viability-normalized secreted streptokinase activity reduction – plasminogen activation absorbance, OD405, dose response (AID 1914); assay type: functional, Streptococcus pyogenes M1 GAS;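 further: secreted streptokinase activity via plasminogen activation per viability signal from cell pellet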
T2 sequence (P10520 whole entry): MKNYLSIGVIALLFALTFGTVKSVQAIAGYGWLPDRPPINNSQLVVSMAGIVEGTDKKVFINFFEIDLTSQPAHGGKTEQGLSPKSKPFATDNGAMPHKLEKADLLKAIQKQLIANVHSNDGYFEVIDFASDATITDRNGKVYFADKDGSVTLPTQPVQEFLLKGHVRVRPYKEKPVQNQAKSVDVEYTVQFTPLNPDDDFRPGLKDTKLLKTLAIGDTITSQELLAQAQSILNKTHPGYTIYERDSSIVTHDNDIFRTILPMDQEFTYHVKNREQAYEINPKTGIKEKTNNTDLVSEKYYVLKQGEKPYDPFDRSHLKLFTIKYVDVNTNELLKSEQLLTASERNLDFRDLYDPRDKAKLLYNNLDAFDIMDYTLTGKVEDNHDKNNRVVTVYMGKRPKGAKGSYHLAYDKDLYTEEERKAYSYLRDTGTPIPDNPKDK

[3] = target: T3, Ubiquitin-conjugating enzyme E2 N (Homo sapiens, UniProt P61088); assay type: functional
T3 sequence (P61088 whole entry): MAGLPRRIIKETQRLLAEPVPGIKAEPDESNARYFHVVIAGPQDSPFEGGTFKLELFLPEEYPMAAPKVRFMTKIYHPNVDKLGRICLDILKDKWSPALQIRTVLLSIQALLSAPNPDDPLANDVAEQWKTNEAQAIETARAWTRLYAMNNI

[4] = target: T3, Ubiquitin-conjugating enzyme E2 N; assay type: functional; remark: listed apart in the source
[5] = system: Streptococcus sp. 'group A'; experiment: Streptococcus pyogenes SK(-)GAS viability under kanamycin – luminescence, BacTiterGlo, confirmation, counter-screen for streptokinase expression inhibitor project, dose response (AID 1900); assay type: functional, organism-based
[6] = target: Signal transducer and activator of transcription 1-alpha/beta (Homo sapiens, UniProt P42224); experiment: STAT3 blockade with qPCR and toxicity readouts – cell-based, STAT1 panel, cytotoxicity, late-stage follow-up, panel member STAT1 Inhibition (AID 2078)
[7] = target: Signal transducer and activator of transcription 3 (Homo sapiens, UniProt P40763); experiment: STAT3 blockade with qPCR and toxicity readouts – cell-based, STAT1 panel, cytotoxicity, late-stage follow-up, panel member STAT3 Inhibition (AID 2078)
Sequence of Signal transducer and activator of transcription 3 (P40763 whole entry): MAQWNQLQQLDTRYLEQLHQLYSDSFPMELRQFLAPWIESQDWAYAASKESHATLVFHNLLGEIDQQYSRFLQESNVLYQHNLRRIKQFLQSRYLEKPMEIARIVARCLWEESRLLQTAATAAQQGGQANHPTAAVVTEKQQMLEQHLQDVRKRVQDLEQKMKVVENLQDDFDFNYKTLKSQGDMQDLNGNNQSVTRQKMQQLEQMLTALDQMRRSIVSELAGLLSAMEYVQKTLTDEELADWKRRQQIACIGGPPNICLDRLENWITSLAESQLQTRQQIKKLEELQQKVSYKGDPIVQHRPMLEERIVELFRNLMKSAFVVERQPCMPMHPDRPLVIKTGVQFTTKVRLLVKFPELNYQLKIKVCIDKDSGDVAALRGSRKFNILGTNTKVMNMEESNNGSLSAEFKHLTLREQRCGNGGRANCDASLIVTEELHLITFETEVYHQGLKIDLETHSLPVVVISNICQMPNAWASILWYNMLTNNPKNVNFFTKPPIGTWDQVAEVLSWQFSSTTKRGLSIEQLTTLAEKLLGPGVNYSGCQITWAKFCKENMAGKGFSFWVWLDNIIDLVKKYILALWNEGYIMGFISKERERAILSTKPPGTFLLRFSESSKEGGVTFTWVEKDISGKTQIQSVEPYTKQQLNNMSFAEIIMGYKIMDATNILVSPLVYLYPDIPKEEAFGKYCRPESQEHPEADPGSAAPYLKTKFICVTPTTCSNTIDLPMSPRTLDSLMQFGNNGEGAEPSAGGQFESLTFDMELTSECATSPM

[8] = target: T4, Dual specificity protein phosphatase 3 (Homo sapiens, UniProt P51452); experiment: VHR1 phosphatase inhibitors, biochemical (AID 1878)
T4 sequence (P51452 whole entry): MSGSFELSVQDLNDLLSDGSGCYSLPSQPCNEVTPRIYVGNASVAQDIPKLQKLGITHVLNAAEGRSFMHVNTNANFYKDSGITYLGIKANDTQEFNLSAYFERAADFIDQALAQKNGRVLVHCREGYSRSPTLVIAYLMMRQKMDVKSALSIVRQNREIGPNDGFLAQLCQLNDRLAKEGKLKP

[9] = target: T5, Dual specificity protein phosphatase 6 (Rattus norvegicus, UniProt Q64346); experiment: inhibition of rat DUSP6 enzyme activity – biochemical, in vitro, primary screen (AID 425)
T5 sequence (Q64346 whole entry): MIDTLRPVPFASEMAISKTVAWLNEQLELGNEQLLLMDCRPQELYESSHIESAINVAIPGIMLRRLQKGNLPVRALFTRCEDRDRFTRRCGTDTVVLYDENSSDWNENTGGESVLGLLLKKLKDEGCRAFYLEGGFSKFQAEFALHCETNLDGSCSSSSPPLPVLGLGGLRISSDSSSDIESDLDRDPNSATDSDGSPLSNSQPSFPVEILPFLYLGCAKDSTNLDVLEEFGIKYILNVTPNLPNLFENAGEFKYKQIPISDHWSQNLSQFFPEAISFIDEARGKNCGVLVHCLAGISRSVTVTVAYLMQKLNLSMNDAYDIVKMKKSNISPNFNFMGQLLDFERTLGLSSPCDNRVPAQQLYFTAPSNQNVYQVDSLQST

[10] = target: Tyrosine-protein phosphatase non-receptor type 11 (Homo sapiens, UniProt Q06124); experiment: PTPN11 enzyme inhibitors – biochemical, selectivity assay for STEP inhibitor project, dose response (AID 602367); assay type: functional; conditions: read-out: IC50_Mean
Sequence of Tyrosine-protein phosphatase non-receptor type 11 (Q06124 whole entry): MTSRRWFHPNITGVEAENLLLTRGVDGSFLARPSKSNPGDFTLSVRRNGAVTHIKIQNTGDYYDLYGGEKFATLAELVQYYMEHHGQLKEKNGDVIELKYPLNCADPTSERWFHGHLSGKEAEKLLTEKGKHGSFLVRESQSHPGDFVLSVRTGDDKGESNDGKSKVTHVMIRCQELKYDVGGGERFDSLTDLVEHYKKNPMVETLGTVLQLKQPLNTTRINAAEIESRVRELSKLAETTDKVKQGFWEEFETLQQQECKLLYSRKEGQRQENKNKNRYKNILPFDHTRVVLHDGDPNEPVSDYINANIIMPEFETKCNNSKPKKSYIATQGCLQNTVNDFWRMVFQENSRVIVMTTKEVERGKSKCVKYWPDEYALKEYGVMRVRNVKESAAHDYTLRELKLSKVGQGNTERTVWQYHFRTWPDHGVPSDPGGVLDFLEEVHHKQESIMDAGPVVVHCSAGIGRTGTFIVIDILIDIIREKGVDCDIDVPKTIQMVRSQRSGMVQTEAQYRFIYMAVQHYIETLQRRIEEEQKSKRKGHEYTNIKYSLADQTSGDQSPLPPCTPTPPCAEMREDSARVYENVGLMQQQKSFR

[11] = viability of PTEN-deleted HCT116 cells – cell-based, HCT116 PTEN knockout, dose response (AID 1047); assay type: functional;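 further: HCT116 colon tumor cells with PTEN knocked out; cells exposed to compound for 60 hours before readout; potency for loss of cell viability measured by luminescence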
[12] = target: T4, Dual specificity protein phosphatase 3; experiment: VHR1 phosphatase inhibitors, primary screen, biochemical, absorbance, uHTS (AID 1654)
[13] = target: T6, Low molecular weight phosphotyrosine protein phosphatase (Homo sapiens, UniProt P24666); assay type: functional; conditions: read-out: IC50_Mean
T6 sequence (P24666 whole entry): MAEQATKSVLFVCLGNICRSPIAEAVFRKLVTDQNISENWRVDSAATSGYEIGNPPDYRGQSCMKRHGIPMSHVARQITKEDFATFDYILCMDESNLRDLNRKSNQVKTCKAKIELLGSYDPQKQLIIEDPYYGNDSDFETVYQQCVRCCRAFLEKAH

[14] = target: T6, Low molecular weight phosphotyrosine protein phosphatase; assay type: functional; conditions: read-out: IC50_Mean; remark: listed apart in the source
[15] = target: Tyrosine-protein phosphatase non-receptor type 5 (Homo sapiens, UniProt P54829); experiment: PTPN5 enzyme inhibition – biochemical, fluorescence intensity, uHTS hits, confirmation (AID 602372); assay type: functional; conditions: read-out: IC50_Mean
[16] = viability of HCT116 lacking mutant beta-catenin – cell-based, human colon tumor, dose response (AID 1045); assay type: functional;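 further: HCT116 colon tumor cells with beta catenin knocked out; cells exposed to compound for 60 hours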
[17] = target: T4, Dual specificity protein phosphatase 3; experiment: VHR phosphatase inhibition, dose response, selectivity assay for STEP inhibitor project, biochemical (AID 602374); assay type: functional; conditions: read-out: IC50_Mean
[18] = target: Glyceraldehyde-3-phosphate dehydrogenase (Homo sapiens, UniProt P04406)
Tumor necrosis factor = Tumor necrosis factor (Homo sapiens, UniProt P01375); experiment: analog potency on TNFa NF-kB signaling – cell-based, set 3, SAR follow-up (AID 2801); assay type: functional
[19] = target: Nucleotide-binding oligomerization domain-containing protein 2 (Homo sapiens, UniProt Q9HC29); experiment: inhibition of MDP-driven NOD2 NF-kB reporter – cell-based, set 3, SAR follow-up (AID 2799); assay type: functional
Sequence of Nucleotide-binding oligomerization domain-containing protein 2 (Q9HC29 whole entry, the tested form may be a part): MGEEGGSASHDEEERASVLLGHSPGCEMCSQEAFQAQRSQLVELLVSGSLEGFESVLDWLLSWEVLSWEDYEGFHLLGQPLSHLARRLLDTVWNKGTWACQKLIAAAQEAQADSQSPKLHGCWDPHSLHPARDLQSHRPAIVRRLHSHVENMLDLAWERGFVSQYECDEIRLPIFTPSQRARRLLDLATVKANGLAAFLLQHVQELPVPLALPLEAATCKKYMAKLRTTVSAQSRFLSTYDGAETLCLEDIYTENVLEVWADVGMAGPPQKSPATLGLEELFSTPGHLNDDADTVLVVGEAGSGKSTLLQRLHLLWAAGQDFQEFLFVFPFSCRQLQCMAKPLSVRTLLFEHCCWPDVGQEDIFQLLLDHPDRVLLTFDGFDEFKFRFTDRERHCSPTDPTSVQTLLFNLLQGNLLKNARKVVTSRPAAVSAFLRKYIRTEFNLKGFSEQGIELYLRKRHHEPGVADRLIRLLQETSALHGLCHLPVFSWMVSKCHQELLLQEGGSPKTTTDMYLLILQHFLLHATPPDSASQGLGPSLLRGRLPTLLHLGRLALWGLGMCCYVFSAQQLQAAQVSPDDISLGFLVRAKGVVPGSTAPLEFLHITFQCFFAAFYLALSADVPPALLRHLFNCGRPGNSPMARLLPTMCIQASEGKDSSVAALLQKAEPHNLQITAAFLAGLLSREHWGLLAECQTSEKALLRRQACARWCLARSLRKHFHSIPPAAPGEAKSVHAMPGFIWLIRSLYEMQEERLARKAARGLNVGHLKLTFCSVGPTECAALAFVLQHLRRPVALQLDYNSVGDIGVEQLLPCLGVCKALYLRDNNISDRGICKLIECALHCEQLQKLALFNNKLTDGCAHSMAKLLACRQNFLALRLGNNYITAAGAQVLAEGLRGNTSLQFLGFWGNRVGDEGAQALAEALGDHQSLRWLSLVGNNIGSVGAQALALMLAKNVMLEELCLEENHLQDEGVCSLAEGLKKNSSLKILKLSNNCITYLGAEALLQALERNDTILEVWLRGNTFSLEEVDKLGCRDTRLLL

Bcl-2-related protein A1 [20] = target: T1, Bcl-2-related protein A1; experiment: Bfl-1 binding inhibitors, SAR follow-up, biochemical, fluorescence polarization (AID 1070)
HEK293 = experiment: SAR analysis of compounds that are cytotoxic to HEK293 - Set 3. [Related pubchem assays (depositor defined):AID1575, AID1578, AID1848, AID1849, AID2001, AID2333, AID2334, AID2335, AID2337, AID2469]; assay type: functional, cell-based; conditions: Homo sapiens
Bcl-2-related protein A1 [21] = target: T1, Bcl-2-related protein A1; experiment: small-molecule antagonists of Bfl-1/BH3 interaction – biochemical, TR-FRET, mouse Bfl-1, confirmation (AID 621);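 further: TR-FRET binding of GST-Bfl-1 to FITC-labelled Bid peptide via terbium antibody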
[22] = target: T7, Nucleotide-binding oligomerization domain-containing protein 1 (Homo sapiens, UniProt Q9Y239); experiment: SAR analysis of compounds that inhibit NOD1 - Set 3. [Related pubchem assays (depositor defined):AID1566, AID1575, AID1578, AID1849, AID1852, AID2333, AID2335, AID2466]; assay type: functional
T7 sequence (Q9Y239 whole entry): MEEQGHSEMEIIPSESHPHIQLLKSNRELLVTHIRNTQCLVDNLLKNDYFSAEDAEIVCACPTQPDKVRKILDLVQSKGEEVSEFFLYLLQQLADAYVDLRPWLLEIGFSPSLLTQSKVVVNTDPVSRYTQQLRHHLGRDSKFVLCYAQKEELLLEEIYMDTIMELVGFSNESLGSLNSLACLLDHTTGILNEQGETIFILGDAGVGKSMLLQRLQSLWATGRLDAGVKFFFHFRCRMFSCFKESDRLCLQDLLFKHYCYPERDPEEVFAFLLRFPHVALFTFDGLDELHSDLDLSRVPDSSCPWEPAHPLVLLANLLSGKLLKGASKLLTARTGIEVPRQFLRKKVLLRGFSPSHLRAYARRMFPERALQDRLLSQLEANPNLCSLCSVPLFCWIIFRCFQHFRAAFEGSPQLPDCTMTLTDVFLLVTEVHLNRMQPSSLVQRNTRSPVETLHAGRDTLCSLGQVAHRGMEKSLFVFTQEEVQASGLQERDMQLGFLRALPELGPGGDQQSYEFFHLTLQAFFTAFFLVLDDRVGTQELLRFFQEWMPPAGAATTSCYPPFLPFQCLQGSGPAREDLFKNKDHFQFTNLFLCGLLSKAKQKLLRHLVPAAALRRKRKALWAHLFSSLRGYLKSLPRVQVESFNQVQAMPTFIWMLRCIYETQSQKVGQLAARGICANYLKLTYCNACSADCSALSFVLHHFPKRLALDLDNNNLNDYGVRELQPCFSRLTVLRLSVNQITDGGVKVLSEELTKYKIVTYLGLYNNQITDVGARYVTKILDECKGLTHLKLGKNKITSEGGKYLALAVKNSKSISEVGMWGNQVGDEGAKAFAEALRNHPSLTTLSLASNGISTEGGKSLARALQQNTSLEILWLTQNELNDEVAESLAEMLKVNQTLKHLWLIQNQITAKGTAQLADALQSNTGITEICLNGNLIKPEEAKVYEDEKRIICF

[23] = target: T8, Tyrosine-protein phosphatase non-receptor type 7 (Homo sapiens, UniProt P35236); assay type: functional
T8 sequence (P35236 whole entry): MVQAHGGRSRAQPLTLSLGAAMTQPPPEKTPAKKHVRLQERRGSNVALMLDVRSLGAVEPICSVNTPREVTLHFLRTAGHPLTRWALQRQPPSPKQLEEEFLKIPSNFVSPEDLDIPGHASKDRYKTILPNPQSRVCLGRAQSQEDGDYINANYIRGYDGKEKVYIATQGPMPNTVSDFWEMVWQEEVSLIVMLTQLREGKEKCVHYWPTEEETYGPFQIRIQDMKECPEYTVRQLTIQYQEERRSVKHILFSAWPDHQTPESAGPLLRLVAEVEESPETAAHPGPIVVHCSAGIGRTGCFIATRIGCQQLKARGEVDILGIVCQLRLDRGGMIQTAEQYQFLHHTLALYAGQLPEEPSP

[24] = target: T9, Tyrosine-protein phosphatase non-receptor type 22 (Homo sapiens, UniProt Q9Y2R2); assay type: functional
T9 sequence (Q9Y2R2 whole entry): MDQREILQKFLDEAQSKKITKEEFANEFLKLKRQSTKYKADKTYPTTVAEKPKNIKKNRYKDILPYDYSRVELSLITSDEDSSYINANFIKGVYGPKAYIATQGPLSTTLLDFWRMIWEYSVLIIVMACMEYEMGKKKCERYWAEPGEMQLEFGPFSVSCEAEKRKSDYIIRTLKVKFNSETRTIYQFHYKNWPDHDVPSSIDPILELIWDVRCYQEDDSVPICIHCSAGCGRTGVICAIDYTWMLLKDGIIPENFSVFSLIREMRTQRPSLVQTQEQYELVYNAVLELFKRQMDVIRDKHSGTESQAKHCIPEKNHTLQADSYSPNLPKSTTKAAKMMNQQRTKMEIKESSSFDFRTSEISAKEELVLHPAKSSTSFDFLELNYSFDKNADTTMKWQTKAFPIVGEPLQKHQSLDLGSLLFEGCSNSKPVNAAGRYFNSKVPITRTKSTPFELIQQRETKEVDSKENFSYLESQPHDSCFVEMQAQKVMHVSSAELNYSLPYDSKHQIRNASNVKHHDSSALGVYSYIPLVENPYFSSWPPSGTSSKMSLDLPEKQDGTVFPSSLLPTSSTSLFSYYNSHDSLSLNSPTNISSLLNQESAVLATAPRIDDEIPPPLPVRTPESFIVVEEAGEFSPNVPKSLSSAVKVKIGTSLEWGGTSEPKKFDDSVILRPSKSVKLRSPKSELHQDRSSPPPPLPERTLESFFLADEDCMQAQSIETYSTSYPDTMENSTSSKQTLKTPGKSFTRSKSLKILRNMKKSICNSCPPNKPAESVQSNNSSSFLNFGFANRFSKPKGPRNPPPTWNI

[25] = target: T9, Tyrosine-protein phosphatase non-receptor type 22; assay type: functional; remark: listed apart in the source

Sequence of Voltage-dependent T-type calcium channel subunit alpha-1H (O95180 whole entry): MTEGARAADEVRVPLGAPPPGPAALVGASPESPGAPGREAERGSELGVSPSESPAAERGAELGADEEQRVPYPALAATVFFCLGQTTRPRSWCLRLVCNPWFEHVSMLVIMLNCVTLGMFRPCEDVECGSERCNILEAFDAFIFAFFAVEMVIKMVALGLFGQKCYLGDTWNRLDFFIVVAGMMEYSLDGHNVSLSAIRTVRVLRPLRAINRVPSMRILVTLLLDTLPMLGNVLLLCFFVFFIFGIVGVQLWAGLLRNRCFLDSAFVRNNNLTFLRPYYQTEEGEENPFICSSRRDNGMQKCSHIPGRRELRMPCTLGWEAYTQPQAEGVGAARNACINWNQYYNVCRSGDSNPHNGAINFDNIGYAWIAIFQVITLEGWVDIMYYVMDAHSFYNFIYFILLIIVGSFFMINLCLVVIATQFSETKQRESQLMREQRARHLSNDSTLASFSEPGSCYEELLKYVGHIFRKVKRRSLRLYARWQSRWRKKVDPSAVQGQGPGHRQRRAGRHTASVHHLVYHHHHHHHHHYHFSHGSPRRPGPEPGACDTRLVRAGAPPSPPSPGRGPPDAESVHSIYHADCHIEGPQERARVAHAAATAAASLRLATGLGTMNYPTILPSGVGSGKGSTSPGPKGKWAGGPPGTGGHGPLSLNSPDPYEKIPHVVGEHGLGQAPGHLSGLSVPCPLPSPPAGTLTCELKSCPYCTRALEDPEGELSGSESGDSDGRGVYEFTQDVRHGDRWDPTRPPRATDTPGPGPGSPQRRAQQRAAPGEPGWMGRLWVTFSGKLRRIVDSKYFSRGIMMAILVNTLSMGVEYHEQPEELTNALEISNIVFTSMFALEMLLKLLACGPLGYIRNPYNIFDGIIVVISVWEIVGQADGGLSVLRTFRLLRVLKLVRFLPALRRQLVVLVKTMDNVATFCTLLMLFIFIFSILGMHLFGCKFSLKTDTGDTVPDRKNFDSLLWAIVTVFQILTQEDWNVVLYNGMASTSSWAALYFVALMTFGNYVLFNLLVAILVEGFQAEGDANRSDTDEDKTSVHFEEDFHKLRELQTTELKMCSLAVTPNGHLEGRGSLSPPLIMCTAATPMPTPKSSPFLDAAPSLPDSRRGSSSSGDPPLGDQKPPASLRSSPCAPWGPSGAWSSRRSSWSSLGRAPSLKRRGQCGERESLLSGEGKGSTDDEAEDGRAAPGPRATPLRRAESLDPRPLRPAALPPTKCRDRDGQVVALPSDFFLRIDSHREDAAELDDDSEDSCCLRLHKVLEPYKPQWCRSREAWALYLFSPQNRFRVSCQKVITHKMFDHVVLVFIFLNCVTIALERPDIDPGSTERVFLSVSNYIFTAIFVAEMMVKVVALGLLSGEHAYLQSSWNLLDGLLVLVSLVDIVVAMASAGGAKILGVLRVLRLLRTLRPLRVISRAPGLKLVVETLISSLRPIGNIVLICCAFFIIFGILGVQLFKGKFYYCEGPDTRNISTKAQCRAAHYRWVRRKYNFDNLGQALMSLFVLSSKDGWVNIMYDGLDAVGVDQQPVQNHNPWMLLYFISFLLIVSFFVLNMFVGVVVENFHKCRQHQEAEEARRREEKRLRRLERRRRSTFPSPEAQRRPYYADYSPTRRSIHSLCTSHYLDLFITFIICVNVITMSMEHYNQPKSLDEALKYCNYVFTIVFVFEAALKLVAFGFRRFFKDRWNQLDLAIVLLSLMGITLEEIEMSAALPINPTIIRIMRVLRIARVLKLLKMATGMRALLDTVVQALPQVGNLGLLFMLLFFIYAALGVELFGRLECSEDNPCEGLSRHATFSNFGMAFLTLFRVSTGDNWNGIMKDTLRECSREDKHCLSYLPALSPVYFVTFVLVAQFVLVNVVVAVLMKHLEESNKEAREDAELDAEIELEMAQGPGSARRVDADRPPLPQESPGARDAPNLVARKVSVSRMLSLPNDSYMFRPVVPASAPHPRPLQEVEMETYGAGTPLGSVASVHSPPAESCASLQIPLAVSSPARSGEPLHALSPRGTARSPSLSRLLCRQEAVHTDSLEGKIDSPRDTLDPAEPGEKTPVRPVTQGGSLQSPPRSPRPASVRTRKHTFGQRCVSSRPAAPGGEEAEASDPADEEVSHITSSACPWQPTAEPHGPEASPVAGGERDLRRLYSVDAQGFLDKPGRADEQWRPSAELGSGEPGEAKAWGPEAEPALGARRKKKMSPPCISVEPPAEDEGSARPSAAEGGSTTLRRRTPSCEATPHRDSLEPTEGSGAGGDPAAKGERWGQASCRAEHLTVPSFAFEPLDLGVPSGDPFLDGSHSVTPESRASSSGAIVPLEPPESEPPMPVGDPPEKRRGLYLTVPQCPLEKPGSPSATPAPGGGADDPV

## CCC(CC)CN1CC2CCC(NC(=O)c3cc(Cl)cc(Cl)c3)C2C1 (centres undefined)
[1]
  EC50: 2.4 µM (active)

## COc1ccc(OCC(=O)NNC(=S)NC(=O)C2CC2)cc1
Bcl-2-related protein A1 [2]
  IC50: > 20 µM (inactive)
Streptococcus
  EC50: 23.3 µM (active)
Streptokinase A
  EC50: > 150 µM (not active)
[3]
  IC50: 6.63 µM (active)
[4]
  IC50: 14.8 µM (active)
[5]
  EC50: 7.37 µM (active)

## COc1ccc(CN2CCN(c3ncnc4sc5c(c34)CCCCC5)CC2)cc1
[6]
  IC50: > 55.7 µM (inactive)
[7]
  IC50: > 18.6 µM (inactive)

## Cc1ccc(-c2nc(NC(=O)CSc3cc(C)c4ccccc4n3)ns2)cc1
[8]
  IC50: 8.86 µM (active)
[9]
  IC50: 24.3 µM (active)
[10]
  IC50: 0.77 µM (active)
[11]
  EC50: 29.1 µM (active)
[12]
  IC50: 27.3 µM (active)
[13]
  IC50: 9.06 µM (active)
[14]
  IC50: 11.7 µM (active)
[15]
  IC50: 3.06 µM (active)
[16]
  EC50: 17.9 µM (active)
[17]
  IC50: 1.31 µM (active)

## COc1ccc(-c2cc(N)n(S(=O)(=O)c3ccc(C(C)(C)C)cc3)n2)cc1OC
[18]
  IC50: > 100 µM (not active)
Tumor necrosis factor
  IC50: > 20 µM (inactive)
[19]
  IC50: > 20 µM (inactive)
Bcl-2-related protein A1 [20]
  IC50: > 100 µM (not active)
HEK293
  IC50: > 20 µM (inactive)
Bcl-2-related protein A1 [21]
  IC50: > 100 µM (not active)
[22]
  IC50: > 20 µM (inactive)

## O=C(C[S+]([O-])CC(=O)Nc1ccc(Cl)cc1)NCC1OCCc2ccccc21 (centres undefined)
[23]
  IC50: > 79.4 µM (inactive)
[24]
  IC50: > 79.4 µM (inactive)
[25]
  IC50: > 79.4 µM (inactive)
